Source: paper PMC10914731, “Homo-BacPROTAC-induced degradation of ClpC1 as a strategy against drug-resistant mycobacteria” (Nature Communications, 2024)
In brackets after ≈: the same amount, converted by molar mass. Several values for one entry are separate records, joined by “and”; a condition that tells them apart may be missing. Equal entries are not always repeated. Where two headings read alike, the source gives them in different places.

Columns and labels:
Mtb # 11291 = test: microbe, parasite or virus in culture; format: cell-based; details: for MIC: read-out: MIC Mtb # 11291
Mtb # 8673 = test: microbe, parasite or virus in culture; format: cell-based
Mtb ATCC 35825 = test: microbe, parasite or virus in culture; format: cell-based
Mycobacterium avium = test: microbe, parasite or virus in culture; format: cell-based
Mycobacterium abscessus = test: microbe, parasite or virus in culture; format: cell-based
Mycobacterium fortuitum = test: microbe, parasite or virus in culture; format: cell-based
[1] = test system: Mycobacterium intracellulare; test: microbe, parasite or virus in culture; format: cell-based
[2] = target: ClpC1 NTD protein (M. tuberculosis) (Mycobacterium tuberculosis, UniProt P9WPC9); test: biochemical; format: binding; details: SPR
Chain of ClpC1 NTD protein (M. tuberculosis) (P9WPC9 1-156, looked up, natural form): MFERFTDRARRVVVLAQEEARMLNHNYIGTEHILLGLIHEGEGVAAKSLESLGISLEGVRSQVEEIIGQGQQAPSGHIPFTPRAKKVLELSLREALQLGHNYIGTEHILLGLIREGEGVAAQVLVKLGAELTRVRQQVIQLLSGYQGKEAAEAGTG

in vitro = details: human; for Papp B→A: basolateral to apical
In short: (§1)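 Values are bidirectional Caco-2 apparent permeabilities, P(A−B) and P(B−A), given in 10^-6 cm s-1. The efflux ratio divides P(B−A) by P(A−B), and intrinsic permeability averages the two directions.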

Caco-2 monolayers = test: in vitro
In short: as §1

[3] = Hepatocyte stability, mice; format: in vitro ADME; details: clearance in hepatocytes
In short: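 Clearance expressed as % of liver blood flow (% Qh), derived from half-life via the well-stirred liver model. Compound at 1 µM final was incubated up to 6 h with ~1 million cells/mL hepatocytes in 50% serum buffer, 37 °C, pH 7.4.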

[4] = format: in vitro ADME, Rat
[5] = format: in vitro ADME, Human; details: clearance in hepatocytes
[6] = test system: M. tuberculosis H37Rv (ATCC 27294); test: microbe, parasite or virus in culture; format: cell-based
Msm 607 = test: microbe, parasite or virus in culture; format: cell-based; details: Mycolicibacterium smegmatis, 607, read-out: MIC Msm 607
Msm 700084 = test: microbe, parasite or virus in culture; format: cell-based
[7] = Mycobacterium tuberculosis, mean, n = 2 well replicates
[8] = Mycobacterium tuberculosis, single well replicates
[9] = Experiment 2, three replicate columns

For `NCC[C@H](O)C(=O)N[C@@H]1C[C@H](N)[C@@H](O[C@H]2O[C@H](CN)[C@@H](O)[C@H](O)[C@H]2O)[C@H](O)[C@H]1O[C@H]1O[C@H](CO)[C@@H](O)[C@H](N)[C@H]1O` [Amikacin, reference compound], the MIC (Mtb # 11291; [7]) was 3.4 µM and 2 µg/mL, the MIC (Mtb # 11291; [8]) was 3.42 µM and 2 µg/mL and the “MIC Mtb # 11291” value (Mtb # 11291; single well replicates) was 2 µg/mL (≈ 3.42 µM). The MIC (Mtb # 11291; single well replicates) was 3.42 µM (≈ 2 µg/mL), the MIC (Mtb # 8673; [7]) was > 219 µM and > 128 µg/mL and the MIC (Mtb # 8673; [8]) was > 219 µM and > 128 µg/mL. For the same compound, the MIC (Mtb # 8673; single well replicates) was >218.58 µM, the “MIC Mtb # 8673” value (Mtb # 8673; single well replicates) was >128 µg/mL and the MIC (Mtb ATCC 35825; Mycobacterium tuberculosis, ATCC35825, mean, n = 2 well replicates) was 0.1 µM and 0.03 µg/mL. For the same compound, the MIC (Mtb ATCC 35825; Mycobacterium tuberculosis, ATCC35825, single well replicates) was 0.03 µg/mL and 0.05 µM, the MIC (Mtb ATCC 35825; single well replicates) was 0.05 µM (≈ 0.0293 µg/mL) and the “MIC Mtb ATCC 35825” value (Mtb ATCC 35825; single well replicates) was 0.03 µg/mL (≈ 0.0512 µM). For the same compound, the “MIC (µg/ml) Mycobacterium avium” value (Mycobacterium avium; [9]) was 1 µg/mL (≈ 1.71 µM), the MIC (Mycobacterium avium; Experiment 2, three replicate columns, read-out: MIC (µM) Mycobacterium avium) was 1.71 µM and the MIC (Mycobacterium avium; Mycobacterium avium, Experiment 2, three replicate columns, read-out: MIC (µM) Mycobacterium avium) was 1.71 µM. For the same compound, the MIC (Mycobacterium avium; Mycobacterium avium, Experiment 2, three replicate columns, read-out: MIC (µg/ml) Mycobacterium avium) was 1 µg/mL, the MIC (Mycobacterium avium; Mycobacterium avium, mean ± SD, read-out: MIC Mycobacterium avium) was 1.7 µM and the “MIC (µg/ml) Mycobacterium abscessus” value (Mycobacterium abscessus; [9]) was 2 µg/mL (≈ 3.42 µM). For the same compound, the MIC (Mycobacterium abscessus; Experiment 2, three replicate columns, read-out: MIC (µM) Mycobacterium abscessus) was 3.42 µM, the MIC (Mycobacterium abscessus; Mycobacteroides abscessus, Experiment 2, three replicate columns, read-out: MIC (µM) Mycobacterium abscessus) was 3.42 µM and the MIC (Mycobacterium abscessus; Mycobacteroides abscessus, Experiment 2, three replicate columns, read-out: MIC (µg/ml) Mycobacterium abscessus) was 2 µg/mL. The MIC (Mycobacterium abscessus; Mycobacteroides abscessus, mean ± SD, read-out: MIC Mycobacterium abscessus) was 3.4 µM, the “MIC (µg/ml) Mycobacterium fortuitum” value (Mycobacterium fortuitum; [9]) was 0.25 µg/mL (≈ 0.427 µM) and the MIC (Mycobacterium fortuitum; Experiment 2, three replicate columns, read-out: MIC (µM) Mycobacterium fortuitum) was 0.43 µM. For the same compound, the MIC (Mycobacterium fortuitum; Mycolicibacterium fortuitum, Experiment 2, three replicate columns, read-out: MIC (µM) Mycobacterium fortuitum) was 0.43 µM, the MIC (Mycobacterium fortuitum; Mycolicibacterium fortuitum, Experiment 2, three replicate columns, read-out: MIC (µg/ml) Mycobacterium fortuitum) was 0.25 µg/mL and the MIC (Mycobacterium fortuitum; Mycolicibacterium fortuitum, mean ± SD, read-out: MIC Mycobacterium fortuitum) was 0.4 µM. For the same compound, the “MIC (µg/ml) Mycobacterium intracellulare” value [1, 9] was 0.50 µg/mL (≈ 0.854 µM), the MIC ([1]; Experiment 2, three replicate columns, read-out: MIC (µM) Mycobacterium intracellulare) was 0.85 µM and the MIC ([1]; Mycobacterium intracellulare, Experiment 2, three replicate columns, read-out: MIC (µM) Mycobacterium intracellulare) was 0.85 µM. The MIC ([1]; Mycobacterium intracellulare, Experiment 2, three replicate columns, read-out: MIC (µg/ml) Mycobacterium intracellulare) was 0.5 µg/mL and the MIC ([1]; Mycobacterium intracellulare, mean ± SD, read-out: MIC Mycobacterium intracellulare) was 0.9 µM.
In the case of `CO[C@H](c1ccccc1)[C@@H]1NC(=O)[C@H](C)NC(=O)[C@H](C[C@@H](C)CO)N(C)C(=O)[C@H](Cc2cn(C)c3ccccc23)N(C)C(=O)[C@H](Cc2cn(CCCCCn3cc(C[C@@H]4NC(=O)[C@H](CC(C)C)N(C)C(=O)[C@H](C(C)C)NC(=O)[C@H]([C@H](OC)c5ccccc5)NC(=O)[C@H](C)NC(=O)[C@H](C[C@@H](C)CO)N(C)C(=O)[C@H](Cc5cn(C)c6ccccc56)N(C)C4=O)nn3)nn2)NC(=O)[C@H](CC(C)C)N(C)C(=O)[C@H](C(C)C)NC1=O` [Compound 22], the Kd ([2]; individual measurements (source data), read-out: KD ClpC1-NTD) is reported as 0.764 nM and 1.13 nM, the “koff ClpC1-NTD” value ([2]; single independent measurements) is reported as 0.01 s⁻¹ and the koff ([2]; single independent measurements, read-out: koff ClpC1-NTD) is reported as 0.007 s⁻¹. For the same compound, the Kd ([2]; read-out: ClpC1-NTD KD Mean ± SD) was 0.9 ± 0.3 nM, the efflux ratio (in vitro; Caco-2) was 0.3 and the Papp B→A (in vitro; Caco-2, CACO permeability PEBA) was < 0.051 ×10⁻⁶ cm/s. For the same compound, the Papp A→B (in vitro; Caco-2, Caco-2 permeability P (A-B), apical to basolateral) was 0.5 ×10⁻⁶ cm/s, the Papp B→A (in vitro; Caco-2, Caco-2 permeability P (B-A)) was 0.2 ×10⁻⁶ cm/s and the “Permeability Correlation P (A-B)” value (Caco-2 monolayers; influence of Trp-Nα methylation on P(A-B), matched pair, listed under the methylated partner) was 0.7. For the same compound, the “Permeability Correlation Ratio” value (Caco-2 monolayers; influence of Trp-Nα methylation on efflux ratio, matched pair, listed under the methylated partner) was 1, the “Caco-2 Int. Perm” value (Caco-2 monolayers; mean value of P(A−B) and P(B−A)) was 0.3 10-6 cm s-1 and the “Hepatocyte Mice” value [3] was 15 %Qh. For the same compound, the “Hepatocyte Stability Rat QH” value ([4]; Rat) was 9.923%, the “Hepatocyte Rat” value ([4]; clearance in hepatocytes) was 10 %Qh and the “Hepatocyte Human” value [5] was 12 %Qh. It also gave an MIC ([6]; Mycobacterium tuberculosis, M. tuberculosis H37Rv strain, read-out: MIC Mtb H37Rv Mean ± SD) of 3.1 µM (≈ 6.23 µg/mL), an MIC ([6]; Mycobacterium tuberculosis, Mtb H37Rv (Supplementary Table 2), read-out: MIC Mtb) of 3.1 µM (≈ 6.23 µg/mL) and an MIC ([6]; Mycobacterium tuberculosis, individual measurements (source data), read-out: Mtb MIC) of 3.12 µM (≈ 6.28 µg/mL). For the same compound, the MIC ([6]; Mycobacterium tuberculosis, single determinations, read-out: Mtb MIC) was 3.12 µM (≈ 6.28 µg/mL), the MIC ([6]; individual measurements (source data), read-out: Mtb MIC) was 3.125 µM (≈ 6.28 µg/mL) and the MIC (Msm 607) was 2.3 ± 1.1 µM (≈ 4.62 µg/mL). For the same compound, the MIC (Msm 700084; Mycolicibacterium smegmatis, 700084, single determinations, read-out: Msm 700084 MIC) was > 50 µM and the MIC (Msm 700084; Mycolicibacterium smegmatis, 700084, read-out: MIC Msm 700084) was > 50 µM.
